Read-outs that look alike come from different tables or passages of the source.
How the values were obtained:
human ENT1 [1] = biological target: T1, human ENT1 (Homo sapiens, UniProt Q99808); assay: Uridine transport inhibition assay (3H-uridine uptake in MDCKII-ENT1-LV cells); type: cell-based; conditions: uridine 1 µM, 1 min at 25° C.
T1 sequence (Q99808 1-456): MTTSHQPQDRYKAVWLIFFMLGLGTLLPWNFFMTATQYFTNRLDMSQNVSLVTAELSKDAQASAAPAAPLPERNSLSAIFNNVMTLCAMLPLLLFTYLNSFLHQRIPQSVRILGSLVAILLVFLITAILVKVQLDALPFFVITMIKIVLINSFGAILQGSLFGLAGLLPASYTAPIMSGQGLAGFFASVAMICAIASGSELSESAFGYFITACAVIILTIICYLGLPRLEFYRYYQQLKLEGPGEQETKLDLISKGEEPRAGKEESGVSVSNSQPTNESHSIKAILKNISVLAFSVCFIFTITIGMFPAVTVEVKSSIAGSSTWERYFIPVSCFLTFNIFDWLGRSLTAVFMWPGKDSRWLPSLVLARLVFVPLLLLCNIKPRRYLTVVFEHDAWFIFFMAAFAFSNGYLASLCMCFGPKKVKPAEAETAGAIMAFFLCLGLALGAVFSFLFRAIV
Description: The aim of this study was to determine the potency of equilibrative nucleoside transporter 1 (ENT1) inhibitors by measuring ENT1-mediated transport is the cellular uptake assay. The human ENT1 transporter can be stably expressed in Madin-Darby Canine Kidney II (MDCKII) cells via transduction. Uridine is efficiently transported by ENT1 and is used as probe in the assay as 3 H-uridine. The interaction is detected as the modulation of the initial rate of 3 H-uridine transport by human ENT1 into MDCKII-ENT1-LV cells stably expressing ENT1 uptake transporter.

[2] = test system: stimulated primary human T cells; assay: T cell proliferation assay (rescue of proliferation in presence of ATP, CFSE dilution); type: cell-based; conditions: 100 uM ATP
Description: The aim of this study was to determine the potency of equilibrative nucleoside transporter 1 (ENT1) inhibitors to rescue proliferation by stimulated primary human T cells incubated in the presence of 100 uM Adenosine triphosphate (ATP), in baseline conditions (condition A) or in the presence of various proteins known to bind small molecules (condition B). Condition A: X-VIVO15 Condition B: X-VIVO15, 2% Human Serum Albumine (HSA) and 0,1% α-1-Acid Glycoprotein (AAG)
Cryopreserved purified human CD3+ T cells were thawed and washed twice with RPMI1640 medium, UltraGlutamine containing 10% hiFBS.
Cells were suspended in PBS containing 10% hiFBS. Cells were stained with CFSE by adding 2 µM solution in PBS, to get a final 1 µM CFSE solution. Cells were incubated while rotating for 5 minutes. Reaction was stopped by adding PBS with 10% FBS and cells were centrifuged for 5 minutes at 1500 rpm.
Cells were resuspended at 1.6 ×10^6 cells/mL, either in X-VIVO15 medium or in 4% Human Serum Albumin and 0,2% α-1-Acid Glycoprotein. 50 µL of cell suspension (8×10^4 T cells) was added to wells of sterile round-bottom 96-well plates. Cells were activated by adding 50 µL of anti-CD3 anti-CD28 coated microbeads, suspended either in XVIVO-15 medium or in 4% HSA and 0,2% α-1-Acid Glycoprotein, at a ratio of one microbead per two cells. Serial dilutions of the ENT1 inhibitors were prepared in X-VIVO15 from 10 mM stock solutions in DMSO, and 50 µL was added to the wells. ATP powder was diluted in X-VIVO15, and 50 µL of this compound was added to the wells to reach a final assay concentration of 100 µM. Final volume of 200 µL. The experiments were also performed in 384 well plates - all volumes reduced by a factor of 4 (12,5 µL) with a final volume of 50 µL. Experiments were performed in duplicate. The cells were placed in a 37° C. humidified tissue culture incubator with 5% CO2 for 72 hours for 96 well plates, 96 hours for 384 well plates. After 72 or 96 hours, proliferation was measured determined by CFSE dilution via flow cytometry.

hERG ion channel = biological target: T2, hERG ion channel (Homo sapiens, UniProt Q12809); assay: hERG ion channel inhibition (Patchliner automated patch-clamp, CHO cells); type: cell-based; conditions: whole-cell, room temperature, 6-point curve up to 100 µM
T2 construct: Chinese Hamster Ovary cell lines stably expressing the full-length ion channel; expressed in transfected cells
T2 sequence (Q12809 whole entry): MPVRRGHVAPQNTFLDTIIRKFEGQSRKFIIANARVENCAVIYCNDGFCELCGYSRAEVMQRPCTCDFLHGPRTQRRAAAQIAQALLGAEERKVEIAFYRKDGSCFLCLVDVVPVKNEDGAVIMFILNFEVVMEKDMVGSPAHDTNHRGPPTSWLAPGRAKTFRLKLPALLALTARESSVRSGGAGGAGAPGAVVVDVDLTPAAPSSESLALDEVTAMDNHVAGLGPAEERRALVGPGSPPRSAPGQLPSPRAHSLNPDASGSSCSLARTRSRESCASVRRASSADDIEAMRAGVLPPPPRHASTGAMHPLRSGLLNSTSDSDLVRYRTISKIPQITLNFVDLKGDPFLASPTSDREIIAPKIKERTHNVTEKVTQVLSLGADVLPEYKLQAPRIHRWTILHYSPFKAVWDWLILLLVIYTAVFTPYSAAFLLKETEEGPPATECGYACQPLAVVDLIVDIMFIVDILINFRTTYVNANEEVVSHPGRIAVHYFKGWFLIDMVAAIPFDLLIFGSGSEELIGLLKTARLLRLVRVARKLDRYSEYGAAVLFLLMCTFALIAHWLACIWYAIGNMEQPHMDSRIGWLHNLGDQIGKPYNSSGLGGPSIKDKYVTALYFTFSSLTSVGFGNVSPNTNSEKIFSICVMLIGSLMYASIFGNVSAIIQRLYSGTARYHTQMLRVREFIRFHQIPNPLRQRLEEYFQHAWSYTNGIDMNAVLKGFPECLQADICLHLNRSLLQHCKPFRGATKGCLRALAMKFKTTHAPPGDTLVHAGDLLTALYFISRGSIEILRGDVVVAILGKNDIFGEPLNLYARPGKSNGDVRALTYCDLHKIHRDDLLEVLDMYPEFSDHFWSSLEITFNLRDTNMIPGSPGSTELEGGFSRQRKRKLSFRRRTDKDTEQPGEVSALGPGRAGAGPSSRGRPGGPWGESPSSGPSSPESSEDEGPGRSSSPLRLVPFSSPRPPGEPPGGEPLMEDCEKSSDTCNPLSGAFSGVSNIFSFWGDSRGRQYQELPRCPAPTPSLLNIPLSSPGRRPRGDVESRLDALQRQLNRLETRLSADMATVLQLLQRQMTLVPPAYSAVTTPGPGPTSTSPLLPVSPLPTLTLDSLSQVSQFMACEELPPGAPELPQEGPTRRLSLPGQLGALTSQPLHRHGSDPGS
Description: The compounds were tested for inhibition of hERG ion channel. 6-Point concentration-response curves were generated on the Patchliner automated patch-clamp using serial dilutions from a maximum test concentration of 100 µM.
Compounds were solubilised to 33 mM in DMSO before dilution in HBPS to 100 µM. 6-Point concentration-response curves were generated using serial dilutions from the top test concentration. Electrophysiological recordings were made from a Chinese Hamster Ovary cell lines stably expressing the full-length ion channel. Single cell ionic currents were measured in whole-cell configuration at room temperature (21-23° C.) using a Patchliner (Nanion Technologies). The internal solution for hERG contained (mM): 120 KF, 20 KCl, 10 EGTA, 10 HEPES and was buffered to pH 7.3. The external solution (HEPES-buffered saline, HBPS) contained (mM): 138 NaCl, 4.5 KCl, 1.8 CaC12, 1.0 MgC12, 10 HEPES, 10 glucose, buffered to pH7.4. Cells were clamped at a holding potential of -80 mV before a depolarising step appropriate for the hERG channel. Currents were measured from the step and referenced to the holding current. Compounds were incubated for 90 seconds. Concentration-response curves were generated by cumulative addition of compound with concentrations low to high. In all cases, steady-state inhibition was achieved before the next concentration of compound was added.
IC50 values were obtained from a 4-parameter logistic fit of the concentration-response data: […]

human ENT1 [3] = biological target: T1, human ENT1; assay: ENT1 binding assay (competition with Sahenta-DY647 on JAR cells); set-up: JAR cells expressing ENT1 were bought from ATCC® (HTB-144TM); host or cells: JAR cells (human choriocarcinoma line; whole cells); conditions: competition with Sahenta-DY647 100 nM, 4° C.
In short: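 Competition binding on intact JAR cells (50000 per well) in HBSS with 10 mM Hepes and 0.1% BSA. Cells pre-incubated with compound 30 min at 4 °C, then Sahenta-DY647 added at its IC90 (100 nM) for another 30 min at 4 °C; after washing, fluorescence read at Ex 630/Em 670 nm.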

human T cells = assay: T cell stimulation assay (Example III, FIG. 1); type: cell-based; conditions: ATP 100 µM
Description: FIG. 1A depicts a graph of log concentration (M) versus percent proliferation. Purified human T cells were activated with anti-CD3/CD28 dynabeads in the presence of ATP (100 µM) as a source of adenosine for 96 h and then proliferation was assessed by CFSE dilution.
FIG. 1B depicts a graph of log concentration of ENT1 inhibitor (M) versus percent proliferation. Experiment performed as in FIG. A with the addition of HSA and AAG to the culture medium (final concentration 2 and 0.1%, respectively).
Peripheral blood mononuclear cells (PBMCs) were first isolated via centrifugation of fresh whole blood over Lymphoprep using SepMate-50 tubes (both from […] Technologies) according to the manufacturer’s instructions. Human T cells were then isolated from the PBMCs using the EasySep Human T cell Isolation Kit ([…] Technologies) according to the manufacturer’s instructions and the cells were cryopreserved in FBS with 10% DMSO until required.
Cryopreserved human T cells were thawed on the day of the experiment and resuspended in PBS with 10% FBS at approximately 1 × 10^7 cells/ml. This cell suspension was diluted 1:1 with 2 µM CFSE solution (ThermoFisher Scientific) in PBS and incubated for 5 minutes at room temperature. The labelling reaction was quenched by further addition of PBS with 10% FBS, and then the cells were washed into X-VIVO15 medium (Lonza) for use in the T cell assay.
CFSE-labelled T cells were plated at 2 × 10^4 cells per well in 384 well plates in the presence of ATP (100 µM, Sigma-Aldrich) as a source of adenosine. Activation was driven by the addition of Dynabeads Human T-Activator CD3/CD28 (ThermoFisher Scientific) at a ratio of 0,5 beads per T cell. ENT1 inhibitor molecules including the reference molecule dilazep (Tocris Bioscience) were added, the volume of the wells was adjusted to 50 µl with X-VIVO15 medium and the plates were cultured in a humidified incubator for 96 h at 37° C. with 5% CO2. In some experiments the culture was supplemented with human serum albumin (HSA) and alpha-1-acid glycoprotein (AAG, both Sigma-Aldrich) at final concentrations of 2 and 0,1%, respectively.
Analysis of proliferation via CSFE dilution was performed by flow cytometry using a BD LSR Fortessa with data analysis on FlowJo (BD Biosciences).

MCA205 cells = assay: Syngeneic fibrosarcoma model (MCA205, FIG. 4); type: in vivo, C57BL/6 mice
Description: FIG. 4 consists of three graphs: A, B, and C depicting the evalution of to assess the anti-tumor efficacy of compound Compound 8 in syngeneic fibrosarcoma model.
To assess the anti-tumor efficacy of compound Compound 8 in syngeneic fibrosarcoma model, C57BL/6 (n=8) were subcutaneously inoculated with […] MCA205 cells in the right flank. At day 8 after inoculation the mice were randomized according tumor size and received oral treatment of Compound 8 at 10 mg/kg or its vehicle. The mice were monitored 3 times a week for tumor measurements, and the data plotted below. […] (FIG. 4B and FIG. 4C) At day 21 after inoculation, 57% of the mice treated with 10 mg/kg of Compound 8 were responsive to Compound 8 treatment and at day 31 15% of the mice presented significant tumor growth delay with tumors below 1000 mm^3. The statistical analysis was performed in JMP software using linear fixed model.

[4] = Condition A: X-VIVO15, read-out: T Cell proliferation (Condition A) IC50
[5] = Condition B: X-VIVO15, 2% HSA and 0,1% AAG, read-out: (2) T Cell proliferation (Condition B) IC50
[6] = anti-CD3/CD28 dynabeads, 96 h (FIG. 1A), read-out: IC50 of restoration of T cell proliferation
[7] = with HSA 2% and AAG 0,1% (FIG. 1B), read-out: IC50 of restoration of T cell proliferation under high protein binding conditions

Row | Compound | IC50 (human ENT1 [1]) | IC50 (human ENT1 [3]) | IC50 [2, 4] | IC50 [2, 5] | IC50 (hERG ion channel) | IC50 (human T cells; [6]) | IC50 (human T cells; [7]) | Median tumor growth kinetics versus vehicle (MCA205 cells; 10 mg/kg oral (FIG. 4A)) | Mice responsive to treatment (MCA205 cells; 10 mg/kg oral, day 21 after inoculation) | Mice with significant tumor growth delay, tumors below 1000 mm^3 (MCA205 cells; 10 mg/kg oral, day 31 after inoculation)
1 | COc1cc(C(=O)OC2CCCOc3cc(cc(OC)c3OC)C(=O)OCCCN3CCN(CC2)CC(F)(F)C3)cc(OC)c1OC (stereo not shown) [Compound 4, 16,16-difluoro-74,75-dimethoxy-6-oxo-5,8-dioxa-1(1,4)-diazepana-7(1,3)-benzenacyclotetradecaphane-12-yl 3,4,5-trimethoxybenzoate] | 1 to 20 nM | 1 to 20 nM | < 1 nM | 1 to 20 nM | 73000 nM | – | – | – | – | –
2 | COc1cc(C(=O)OC2CCCOc3cc(cc(OC)c3OC)C(=O)NCCCN3CCCN(CC2)CC3)cc(OC)c1OC (stereo not shown) [Compound 8, 74,75-dimethoxy-6-oxo-8-oxa-5-aza-1(1,4)-diazepana-7(1,3)-benzenacyclotetradecaphane-12-yl 3,4,5-trimethoxybenzoate] | – | 1 to 20 nM | – | – | – | 2 nM | 16 nM | slight change in tumor size | 57% | 15%
3 | COc1cc(C(=O)OCCCN2CCCN(CCCOC(=O)c3cc(OC)c(OC)c(OC)c3)CC2)cc(OC)c1OC [Dilazep, dilazep, reference compound] | – | – | 1 to 20 nM | 20 to 500 nM | 900 nM | 71 nM | 337 nM | – | – | –

Further lines, with some results ahead:

Row | IC50 (human ENT1 [1]) | IC50 (human ENT1 [3]) | Compound | IC50 [2, 4] | IC50 [2, 5] | IC50 (hERG ion channel) | IC50 (human T cells; [6]) | IC50 (human T cells; [7]) | Median tumor growth kinetics versus vehicle (MCA205 cells; 10 mg/kg oral (FIG. 4A)) | Mice responsive to treatment (MCA205 cells; 10 mg/kg oral, day 21 after inoculation) | Mice with significant tumor growth delay, tumors below 1000 mm^3 (MCA205 cells; 10 mg/kg oral, day 31 after inoculation)
4 | 1 to 20 nM | 1 to 20 nM | COc1cc(C(=O)O[C@@H]2CCCOc3cc(cc(OC)c3OC)C(=O)NCCCN3CCCN(CC2)CC3)cc(OC)c1OC [Compound 10, (12R)-74,75-dimethoxy-6-oxo-8-oxa-5-aza-1(1,4)-diazepana-7(1,3)-benzenacyclotetradecaphane-12-yl 3,4,5-trimethoxybenzoate] | 1 to 20 nM | 20 to 500 nM | 3400 nM | – | – | – | – | –
5 | 1 to 20 nM | 1 to 20 nM | COc1cc(C(=O)O[C@@H]2CCCOc3cc(cc(OC)c3OC)C(=O)N(C)CCCN3CCCN(CC2)CC3)cc(OC)c1OC [Compound 13, (12R)-74,75-dimethoxy-5-methyl-6-oxo-8-oxa-5-aza-1(1,4)-diazepana-7(1,3)-benzenacyclotetradecaphane-12-yl 3,4,5-trimethoxybenzoate] | 1 to 20 nM | > 500 nM | – | – | – | – | – | –

Source: patent publication US20230203058A1, “MACROCYCLIC DIAMINE DERIVATIVES AS ENT INHIBITORS FOR THE TREATMENT OF CANCERS, AND COMBINATION THEREOF WITH ADENOSINE RECEPTOR ANTAGONISTS” (ITEOS BELGIUM SA, priority 2020, published 2023)
